In publication PMC12648652, “Combining AlphaFold with Focused Virtual Library Design in the Development of Novel CCR2 and CCR5 Antagonists” (Journal of Chemical Information and Modeling, 2025):

Biological target: CC chemokine receptor 2 (CCR2) (Homo sapiens, UniProt P41597)
Sequence (P41597 whole entry): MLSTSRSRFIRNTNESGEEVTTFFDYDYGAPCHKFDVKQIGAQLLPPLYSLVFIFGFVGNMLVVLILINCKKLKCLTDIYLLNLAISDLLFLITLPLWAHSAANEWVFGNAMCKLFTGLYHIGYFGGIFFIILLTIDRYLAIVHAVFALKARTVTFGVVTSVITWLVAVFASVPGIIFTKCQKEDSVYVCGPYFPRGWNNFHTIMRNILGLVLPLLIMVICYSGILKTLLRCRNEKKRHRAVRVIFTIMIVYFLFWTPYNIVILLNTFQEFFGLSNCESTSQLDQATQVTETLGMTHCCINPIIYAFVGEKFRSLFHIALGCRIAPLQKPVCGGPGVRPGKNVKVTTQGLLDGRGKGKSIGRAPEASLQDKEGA

Ki | SMILES
1.32 µM | O=S(=O)(Nc1cncc(N2CCOCC2)n1)c1ccc(Cl)c(Cl)c1 [compound 17, LUF8075]
3.26 µM | COc1ccc(S(=O)(=O)Nc2cncc(N3CCOCC3)n2)cc1 [compound 13, LUF8070]
5.95 µM | O=S(=O)(Nc1cncc(N2CCCCC2)n1)c1ccc(Cl)c(C(F)(F)F)c1 [compound 20, LUF8100]
